Measurements published in patent US20150284375A1 (AJINOMOTO CO., INC., priority 2012, published 2015).
pIC50: −log10 of the molar value.

Biological target: T1, human TRPA1 (Homo sapiens, UniProt O75762)
T1 construct: expressed in transfected cells; host or cells: Human embryonic kidney-derived 293T cells, transiently transfected with the pcDNA3.1/zeo(+) human TRPA1 plasmid
Experiment: Measurement of TRPA1 antagonist activity (intracellular calcium increase, FLIPR, allylisothiocyanate stimulation)
Assay type: cell-based
Settings: allylisothiocyanate 20 μM stimulation, FLIPR calcium assay; read-out: antagonism hTRPA1
Method in brief: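 IC50 derives from a sigmoid fit of inhibition of the 5-min FLIPR fluorescence change evoked by 20 μM allylisothiocyanate, normalized between agonist and buffer responses. Test substance, diluted in HBSS/20 mM HEPES pH 7.2 plus 0.1% BSA, was applied 10 min beforehand at room temperature to Calcium4-loaded 293T cells transiently expressing human TRPA1.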

T1 sequence (O75762 whole entry): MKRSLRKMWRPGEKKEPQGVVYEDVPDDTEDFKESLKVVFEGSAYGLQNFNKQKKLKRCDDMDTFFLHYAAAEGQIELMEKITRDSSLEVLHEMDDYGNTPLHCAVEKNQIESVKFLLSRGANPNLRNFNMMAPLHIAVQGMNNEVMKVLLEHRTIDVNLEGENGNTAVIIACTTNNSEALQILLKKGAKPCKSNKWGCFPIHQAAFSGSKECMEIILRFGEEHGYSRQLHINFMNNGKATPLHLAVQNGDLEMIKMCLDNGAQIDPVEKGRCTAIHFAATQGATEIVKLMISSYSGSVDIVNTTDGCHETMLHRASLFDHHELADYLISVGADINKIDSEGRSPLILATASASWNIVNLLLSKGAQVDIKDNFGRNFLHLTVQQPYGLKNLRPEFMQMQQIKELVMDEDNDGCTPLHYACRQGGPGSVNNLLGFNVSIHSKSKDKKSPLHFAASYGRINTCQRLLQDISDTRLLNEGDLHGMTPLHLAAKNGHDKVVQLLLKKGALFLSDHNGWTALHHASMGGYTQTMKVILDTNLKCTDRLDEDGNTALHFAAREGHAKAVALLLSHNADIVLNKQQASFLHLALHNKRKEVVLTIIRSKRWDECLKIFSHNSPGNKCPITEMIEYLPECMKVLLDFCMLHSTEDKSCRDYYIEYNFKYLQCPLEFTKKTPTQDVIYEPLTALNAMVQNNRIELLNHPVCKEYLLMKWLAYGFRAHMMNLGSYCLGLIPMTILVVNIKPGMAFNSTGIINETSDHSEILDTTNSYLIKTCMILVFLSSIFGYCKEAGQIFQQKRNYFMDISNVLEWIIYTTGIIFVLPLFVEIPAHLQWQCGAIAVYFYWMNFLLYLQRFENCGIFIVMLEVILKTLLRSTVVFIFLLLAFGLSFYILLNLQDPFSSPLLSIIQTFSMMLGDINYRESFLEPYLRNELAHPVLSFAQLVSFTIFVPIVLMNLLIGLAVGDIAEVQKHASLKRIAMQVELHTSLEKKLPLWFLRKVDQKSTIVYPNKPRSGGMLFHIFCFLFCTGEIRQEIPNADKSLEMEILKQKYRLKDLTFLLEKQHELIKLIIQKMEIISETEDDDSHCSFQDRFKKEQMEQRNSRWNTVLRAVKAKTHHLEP

| SMILES | pIC50 |
| --- | --- |
| O=C(NCc1cccc(OCc2ccc(C(F)(F)F)cc2)c1)[C@@H]1C[C@@H](O)CN1S(=O)(=O)c1ccco1 [Example 180, (2S,4R)-1-(2-furylsulfonyl)-4-hydroxy-N-[[3-[[4-(trifluoromethyl)phenyl]methoxy]phenyl]methyl]pyrrolidine-2-carboxamide] | 5.89 |
| O=C(NCc1cccc(OCc2ccccc2)c1)[C@@H]1CCCN1S(=O)(=O)c1ccco1 [Example 181, (2S)-N-[(3-benzyloxyphenyl)methyl]-1-(2-furylsulfonyl)pyrrolidine-2-carboxamide] | 7.00 |
| O=C(NCc1cccc(OCc2ccccc2)c1)[C@@H]1C=CCN1S(=O)(=O)c1ccco1 [Example 182, (2S)-N-[(3-benzyloxyphenyl)methyl]-1-(2-furylsulfonyl)-2,5-dihydropyrrole-2-carboxamide] | 7.08 |
| O=C(NCc1cccc(Oc2ccc(C(F)(F)F)cc2)c1)[C@@H]1CCCN1S(=O)(=O)c1nccs1 [Example 183, (2S)-1-thiazol-2-ylsulfonyl-N-[[3-[4-(trifluoromethyl)phenoxy]phenyl]methyl]pyrrolidine-2-carboxamide] | 5.48 |
| O=C(NCc1cccc(OCc2ccc(C(F)(F)F)cc2)c1)[C@@H]1CCCN1S(=O)(=O)c1nccs1 [Example 184, (2S)-1-thiazol-2-ylsulfonyl-N-[[3-[[4-(trifluoromethyl)phenyl]methoxy]phenyl]methyl]pyrrolidine-2-carboxamide] | 6.01 |
| N#Cc1ccc(S(=O)(=O)N2CCC[C@H]2C(=O)NCc2cccc(OCc3ccc(C(F)(F)F)cc3)c2)cc1 [Example 185, (2S)-1-(4-cyanophenyl)sulfonyl-N-[[3-[[4-(trifluoromethyl)phenyl]methoxy]phenyl]methyl]pyrrolidine-2-carboxamide] | 6.62 |
| O=C(NCc1cccc(Oc2ccc(C(F)(F)F)cc2)c1)[C@@H]1CCCN1S(=O)(=O)c1cccc(F)c1 [Example 186, (2S)-1-(3-fluorophenyl)sulfonyl-N-[[3-[4-(trifluoromethyl)phenoxy]phenyl]methyl]pyrrolidine-2-carboxamide] | 7.15 |
| O=C(NCc1cccc(Oc2ccc(C(F)(F)F)cc2)c1)[C@@H]1CCCN1S(=O)(=O)c1ccc(F)c(F)c1 [Example 187, (2S)-1-(3,4-difluorophenyl)sulfonyl-N-[[3-[4-(trifluoromethyl)phenoxy]phenyl]methyl]pyrrolidine-2-carboxamide] | 7.22 |
| O=C(NCc1cccc(Oc2ccc(C(F)(F)F)cc2)c1)[C@@H]1CCCN1S(=O)(=O)c1cc(F)cc(F)c1 [Example 188, (2S)-1-(3,5-difluorophenyl)sulfonyl-N-[[3-[4-(trifluoromethyl)phenoxy]phenyl]methyl]pyrrolidine-2-carboxamide] | 7.00 |
| O=C(NCc1cccc(Oc2ccc(C(F)(F)F)cc2)c1)[C@@H]1CCCN1S(=O)(=O)c1ccco1 [Example 189, (2S)-1-(2-furylsulfonyl)-N-[[3-[4-(trifluoromethyl)phenoxy]phenyl]methyl]pyrrolidine-2-carboxamide] | 7.00 |
| O=C(NCc1cccc(Oc2ccc(C(F)(F)F)cc2)c1)[C@@H]1CCCN1S(=O)(=O)c1ccsc1 [Example 190, (2S)-1-(3-thienylsulfonyl)-N-[[3-[4-(trifluoromethyl)phenoxy]phenyl]methyl]pyrrolidine-2-carboxamide] | 7.46 |
| O=C(NCc1cccc(OCc2ccc(C(F)(F)F)cc2)c1)[C@@H]1CCCN1S(=O)(=O)c1ccccc1 [Example 191, (2S)-1-(benzenesulfonyl)-N-[[3-[[4-(trifluoromethyl)phenyl]methoxy]phenyl]methyl]pyrrolidine-2-carboxamide] | 7.18 |
| O=C(NCc1cccc(OCc2ccc(C(F)(F)F)cc2)c1)[C@@H]1CCCN1S(=O)(=O)c1cccc(F)c1 [Example 192, (2S)-1-(3-fluorophenyl)sulfonyl-N-[[3-[[4-(trifluoromethyl)phenyl]methoxy]phenyl]methyl]pyrrolidine-2-carboxamide] | 7.31 |
| O=C(NCc1cccc(OCc2ccc(C(F)(F)F)cc2)c1)[C@@H]1CCCN1S(=O)(=O)c1cccc(Cl)c1 [Example 193, (2S)-1-(3-chlorophenyl)sulfonyl-N-[[3-[[4-(trifluoromethyl)phenyl]methoxy]phenyl]methyl]pyrrolidine-2-carboxamide] | 6.59 |
| N#Cc1cccc(S(=O)(=O)N2CCC[C@H]2C(=O)NCc2cccc(OCc3ccc(C(F)(F)F)cc3)c2)c1 [Example 194, (2S)-1-(3-cyanophenyl)sulfonyl-N-[[3-[[4-(trifluoromethyl)phenyl]methoxy]phenyl]methyl]pyrrolidine-2-carboxamide] | 5.96 |
| CC(=O)c1ccc(S(=O)(=O)N2CCC[C@H]2C(=O)NCc2cccc(OCc3ccc(C(F)(F)F)cc3)c2)cc1 [Example 195, (2S)-1-(4-acetylphenyl)sulfonyl-N-[[3-[[4-(trifluoromethyl)phenyl]methoxy]phenyl]methyl]pyrrolidine-2-carboxamide] | 5.77 |
| COc1ccc(S(=O)(=O)N2CCC[C@H]2C(=O)NCc2cccc(OCc3ccc(C(F)(F)F)cc3)c2)cc1 [Example 196, (2S)-1-(4-methoxyphenyl)sulfonyl-N-[[3-[[4-(trifluoromethyl)phenyl]methoxy]phenyl]methyl]pyrrolidine-2-carboxamide] | 6.19 |
| COc1cccc(S(=O)(=O)N2CCC[C@H]2C(=O)NCc2cccc(OCc3ccc(C(F)(F)F)cc3)c2)c1 [Example 197, (2S)-1-(3-methoxyphenyl)sulfonyl-N-[[3-[[4-(trifluoromethyl)phenyl]methoxy]phenyl]methyl]pyrrolidine-2-carboxamide] | 5.77 |
| COc1ccccc1S(=O)(=O)N1CCC[C@H]1C(=O)NCc1cccc(OCc2ccc(C(F)(F)F)cc2)c1 [Example 198, (2S)-1-(2-methoxyphenyl)sulfonyl-N-[[3-[[4-(trifluoromethyl)phenyl]methoxy]phenyl]methyl]pyrrolidine-2-carboxamide] | 5.41 |
| O=C(NCc1cccc(OCc2ccc(C(F)(F)F)cc2)c1)[C@@H]1CCCN1S(=O)(=O)c1ccc(OC(F)F)cc1 [Example 199, (2S)-1-[4-(difluoromethoxy)phenyl]sulfonyl-N-[[3-[[4-(trifluoromethyl)phenyl]methoxy]phenyl]methyl]pyrrolidine-2-carboxamide] | 5.66 |
| O=C(NCc1cccc(OCc2ccc(C(F)(F)F)cc2)c1)[C@@H]1CCCN1S(=O)(=O)c1cccs1 [Example 200, (2S)-1-(2-thienylsulfonyl)-N-[[3-[[4-(trifluoromethyl)phenyl]methoxy]phenyl]methyl]pyrrolidine-2-carboxamide] | 7.22 |
| O=C(NCc1cccc(OCc2ccc(C(F)(F)F)cc2)c1)[C@@H]1CCCN1S(=O)(=O)c1cccnc1 [Example 201, (2S)-1-(3-pyridylsulfonyl)-N-[[3-[[4-(trifluoromethyl)phenyl]methoxy]phenyl]methyl]pyrrolidine-2-carboxamide] | 6.92 |
| O=C(NCc1cccc(OCc2ccc(C(F)(F)F)cc2)c1)[C@@H]1CCCN1S(=O)(=O)c1ccccn1 [Example 202, (2S)-1-(2-pyridylsulfonyl)-N-[[3-[[4-(trifluoromethyl)phenyl]methoxy]phenyl]methyl]pyrrolidine-2-carboxamide] | 6.40 |
